Data reported in patent US20160272617A1, “SUBSTITUTED PHENYLALANINE DERIVATIVES” (BAYER PHARMA AKTIENGESELLSCHAFT, priority 2013, published 2016).
Where a name gives a salt, the structure may show the parent alone.

Experiments:
human factor XIa = target: T1, human factor XIa (Homo sapiens, UniProt P03951); assay: Measurement of FXIa inhibition (fluorogenic peptide substrate Boc-Glu(OBzl)-Ala-Arg-AMC); assay type: biochemical; settings: factor XIa from Kordia, 15 min preincubation, 30 min at 22° C., fluorescence
T1 construct: purchased Kordia
T1 sequence (P03951 388-625 limits assumed): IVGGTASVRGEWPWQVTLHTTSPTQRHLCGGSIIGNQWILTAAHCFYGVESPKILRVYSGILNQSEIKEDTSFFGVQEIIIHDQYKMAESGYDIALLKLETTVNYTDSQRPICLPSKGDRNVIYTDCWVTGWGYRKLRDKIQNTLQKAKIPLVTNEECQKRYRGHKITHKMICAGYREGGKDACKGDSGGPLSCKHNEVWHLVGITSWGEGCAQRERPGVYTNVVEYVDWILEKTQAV
T1 sequence (P03951 19-387 partner limits assumed): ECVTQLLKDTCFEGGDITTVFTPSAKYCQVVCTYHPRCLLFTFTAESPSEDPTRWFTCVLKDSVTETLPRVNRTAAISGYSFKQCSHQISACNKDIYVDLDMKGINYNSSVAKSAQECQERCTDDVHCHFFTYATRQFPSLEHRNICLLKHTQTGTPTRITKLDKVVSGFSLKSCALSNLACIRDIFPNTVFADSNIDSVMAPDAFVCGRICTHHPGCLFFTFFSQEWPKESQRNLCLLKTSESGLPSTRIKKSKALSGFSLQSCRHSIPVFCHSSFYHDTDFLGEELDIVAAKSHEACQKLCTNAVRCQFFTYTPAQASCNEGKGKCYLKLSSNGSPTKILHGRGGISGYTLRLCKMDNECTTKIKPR
Procedure, shortened: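 Released AMC fluorescence (360/460 nm) read after 30 min at 22 °C. The reaction was started with Boc-Glu(OBzl)-Ala-Arg-AMC (10 μM stock) after a 15 min preincubation of the enzyme (0.45 nM stock) with compound (final 50 μM to 0.00013 μM).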

human plasmin = target: T2, human plasmin (Homo sapiens, UniProt P00747); assay: Measurement of plasmin inhibition (fluorogenic peptide substrate MeOSuc-Ala-Phe-Lys-AMC); assay type: biochemical; settings: plasmin from Kordia, 15 min preincubation, 30 min at 22° C., fluorescence
T2 construct: purchased Kordia
T2 sequence (P00747 581-810 limits assumed): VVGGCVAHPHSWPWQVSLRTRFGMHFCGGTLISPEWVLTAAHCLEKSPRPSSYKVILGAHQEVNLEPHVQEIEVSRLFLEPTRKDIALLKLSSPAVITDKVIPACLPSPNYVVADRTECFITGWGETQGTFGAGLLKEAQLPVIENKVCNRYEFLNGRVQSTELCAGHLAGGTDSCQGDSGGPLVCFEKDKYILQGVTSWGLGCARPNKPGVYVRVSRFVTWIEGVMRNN
T2 sequence (P00747 97-580 partner limits assumed): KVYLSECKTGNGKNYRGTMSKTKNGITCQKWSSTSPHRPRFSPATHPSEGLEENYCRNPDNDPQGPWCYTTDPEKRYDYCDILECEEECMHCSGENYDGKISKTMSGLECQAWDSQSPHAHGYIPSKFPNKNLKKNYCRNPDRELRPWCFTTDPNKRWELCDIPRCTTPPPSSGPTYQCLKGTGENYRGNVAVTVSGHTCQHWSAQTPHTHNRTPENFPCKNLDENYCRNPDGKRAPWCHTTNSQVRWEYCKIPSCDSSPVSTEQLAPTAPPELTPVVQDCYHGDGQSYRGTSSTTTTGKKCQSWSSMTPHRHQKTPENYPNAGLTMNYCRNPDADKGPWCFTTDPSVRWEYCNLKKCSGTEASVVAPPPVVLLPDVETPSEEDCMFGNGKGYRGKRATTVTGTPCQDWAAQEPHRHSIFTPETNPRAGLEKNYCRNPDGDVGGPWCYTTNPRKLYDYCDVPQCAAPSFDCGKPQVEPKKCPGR
Method: The plasmin inhibition of the inventive substances is determined using a biochemical test system which utilizes the reaction of a peptidic plasmin substrate to determine the enzymatic activity of human plasmin. Here, plasmin cleaves from the peptic plasmin substrate the C-terminal aminomethylcoumarin (AMC), the fluorescence of which is measured. The determinations are carried out in microtitre plates.
Test substances are dissolved in dimethyl sulphoxide and serially diluted in dimethyl sulphoxide (3000 μM to 0.0078 μM; resulting final concentrations in the test: 50 μM to 0.00013 μM). In each case 1 μl of the diluted substance solutions are placed into the wells of white microtitre plates from Greiner (384 wells). Subsequently, the following are added successively: 20 μl of assay buffer (50 mmol/Tris buffer pH 7.4; 100 mmol/l sodium chloride; 5 mmol/calcium chloride; 0.1% bovine serum albumin) and 20 μl of plasmin from Kordia (0.3 μg/ml in assay buffer) are then added successively. After 15 min of incubation, the enzyme reaction is started by addition of 20 μl of the plasmin substrate MeOSuc-Ala-Phe-Lys-AMC dissolved in assay buffer (150 μM in assay buffer) from Bachem, the mixture is incubated at room temperature (22° C.) for 30 min and fluorescence is then measured (excitation: 360 nm, emission: 460 nm). The measured emissions of the test batches with test substance are compared to those of control batches without test substance (only dimethyl sulphoxide instead of test substance in dimethyl sulphoxide), and the IC50 values are calculated from the concentration/activity relationships.

human and animal plasma = assay: Determination of anticoagulatory activity: activated partial thromboplastin time (aPTT) in plasma; settings: concentration of test substance which brings about a 1.5-fold extension of the aPTT; plasma species not given
Procedure, shortened: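 Citrated plasma (1:9, 0.11 M citrate; 4000 g, 15 min) from human or animal blood incubated with test compound and cephalin/kaolin PTT reagent for 3 min at 37° C.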

| IC50 (human factor XIa) [nM] | IC50 (human plasmin) [nM] | SMILES | aPTT (human and animal plasma) [µmol/L] |
| --- | --- | --- | --- |
| 1.8 | 1.1 | Cc1cc(C(=O)NC(C)C)ccc1-c1ccc(CC(NC(=O)[C@H]2CC[C@H](CN)CC2)C(=O)Nc2ccc3cn[nH]c3c2)cc1 (mixture of isomers) [Example 21, 4′-[(2R,S)-2-({[trans-4-(Aminomethyl)cyclohexyl]carbonyl}amino)-3-(1H-indazol-6-ylamino)-3-oxopropyl]-N-isopropyl-2-methylbiphenyl-4-carboxamide hydrochloride (enantiomer mixture)] | – |
| 2800 | 270 | Cc1cc(C(=O)NC(C)C)ccc1-c1ccc(C[C@@H](NC(=O)C2CCC(CN)CC2)C(=O)Nc2ccc3cn[nH]c3c2)cc1 (single isomer, unassigned; enantiomer 1) [Example 169] | – |
| 5.6 | 1.3 | Cc1cc(C(=O)NC(C)C)ccc1-c1ccc(C[C@H](NC(=O)C2CCC(CN)CC2)C(=O)Nc2ccc3cn[nH]c3c2)cc1 (single isomer, unassigned; enantiomer 2) [Example 170] | – |
| 1.7 | 1.9 | Cc1cc(C(=O)NC(C)C)ccc1-c1ccc(C[C@H](NC(=O)[C@H]2CC[C@H](CN)CC2)C(=O)Nc2ccc(-c3nn[nH]n3)cc2)cc1 [Example 7, 4′-[(2S)-2-({[trans-4-(Aminomethyl)cyclohexyl]carbonyl}amino)-3-oxo-3-{[4-(2H-tetrazol-5-yl)phenyl]amino}propyl]-N-isopropyl-2-methylbiphenyl-4-carboxamide hydrochloride] | – |
| 1.8 | 5.7 | Cc1cc(C(=O)N2CCCC2)ccc1-c1ccc(C[C@H](NC(=O)[C@H]2CC[C@H](CN)CC2)C(=O)Nc2ccc(-c3nn[nH]n3)cc2)cc1 [Example 20, trans-4-(Aminomethyl)-N-[(2S)-3-[2′-methyl-4′-(pyrrolidin-1-ylcarbonyl)biphenyl-4-yl]-1-oxo-1-{[4-(2H-tetrazol-5-yl)phenyl]amino}propan-2-yl]cyclohexanecarboxamide] | – |
| 1.3 | 1.4 | Cc1cc(C(=O)NC(C)C)ccc1-c1ccc(C[C@H](NC(=O)[C@H]2CC[C@H](CN)CC2)C(=O)Nc2ccc(-c3nn[nH]n3)c(F)c2)cc1 [Example 96, 4′-[(2S)-2-({[trans-4-(Aminomethyl)cyclohexyl]carbonyl}amino)-3-{[3-fluoro-4-(2H-tetrazol-5-yl)phenyl]amino}-3-oxopropyl]-N-isopropyl-2-methylbiphenyl-4-carboxamide hydrochloride] | 0.5 |
| 7.9 | 0.74 | Cc1cc(C(=O)NC2CCC2)ccc1-c1ccc(C[C@H](NC(=O)[C@H]2CC[C@H](CN)CC2)C(=O)Nc2cc(Cl)c3oc(=O)[nH]c3c2)cc1 [Example 102, 4′-{(2S)-2-({[trans-4-(Aminomethyl)cyclohexyl]carbonyl}amino)-3-[(7-chloro-2-oxo-2,3-dihydro-1,3-benzoxazol-5-yl)amino]-3-oxopropyl}-N-cyclobutyl-2-methylbiphenyl-4-carboxamide hydrochloride] | – |
| 7.1 | 0.58 | Cc1cc(C(=O)NC(C)C)ccc1-c1ccc(C[C@H](NC(=O)[C@H]2CC[C@H](CN)CC2)C(=O)Nc2cc(Cl)c3oc(=O)[nH]c3c2)cc1 [Example 156, 4′-{(2S)-2-({[trans-4-(Aminomethyl)cyclohexyl]carbonyl}amino)-3-[(7-chloro-2-oxo-2,3-dihydro-1,3-benzoxazol-5-yl)amino]-3-oxopropyl}-N-isopropyl-2-methylbiphenyl-4-carboxamide hydrochloride] | – |
| 5.2 | 1.3 | Cc1cc(C(=O)NC2CCC2)ccc1-c1ccc(C[C@H](NC(=O)[C@H]2CC[C@H](CN)CC2)C(=O)Nc2ccc3cc(C(=O)O)[nH]c3c2)cc1 [Example 160, 6-({(2S)-2-({[trans-4-(Aminomethyl)cyclohexyl]carbonyl}amino)-3-[4′-(cyclobutylcarbamoyl)-2′-methylbiphenyl-4-yl]propanoyl}amino)-1H-indole-2-carboxylic acid hydrochloride] | – |
| 6.1 | 6.7 | Cc1cc(C(=O)NC(C)C)ccc1-c1ccc(C[C@H](NC(=O)[C@H]2CC[C@H](CN)CC2)C(=O)Nc2cc(C(=O)O)c3cn[nH]c3c2)cc1 [Example 161, 6-({(2S)-2-({[trans-4-(Aminomethyl)cyclohexyl]carbonyl}amino)-3-[4′-(isopropylcarbamoyl)-2′-methylbiphenyl-4-yl]propanoyl}amino)-1H-indazole-4-carboxylic acid hydrochloride] | – |
| 1.4 | 1.9 | CNC(=O)C(F)(F)C(F)(F)c1nnc(-c2ccc(NC(=O)[C@H](Cc3ccc(-c4ccc(C(=O)NC(C)C)cc4C)cc3)NC(=O)[C@H]3CC[C@H](CN)CC3)cc2)[nH]1 [Example 165, 4′-({(2S)-2-({[trans-4-(Aminomethyl)cyclohexyl]carbonyl}amino)-3-oxo-3-[(4-{5-[1,1,2,2-tetrafluoro-3-(methylamino)-3-oxopropyl]-4H-1,2,4-triazol-3-yl}phenyl)amino]propyl}-N-isopropyl-2-methylbiphenyl-4-carboxamide hydrochloride] | – |

| SMILES | IC50 (human factor XIa) [nM] | IC50 (human plasmin) [nM] | aPTT (human and animal plasma) [µmol/L] |
| --- | --- | --- | --- |
| Cc1cc(C(=O)NC(C)C)ccc1-c1ccc(C[C@H](NC(=O)[C@H]2CC[C@H](CN)CC2)C(=O)Nc2ccc(-c3nnc(C(F)(F)C(F)(F)C(=O)O)[nH]3)cc2)cc1 [Example 116, 3-{5-[4-({(2S)-2-({[trans-4-(Aminomethyl)cyclohexyl]carbonyl}amino)-3-[4′-(isopropylcarbamoyl)-2′-methylbiphenyl-4-yl]propanoyl}amino)phenyl]-4H-1,2,4-triazol-3-yl}-2,2,3,3-tetrafluoropropanoic acid hydrochloride] | 2 | 4.4 | 0.57 |
| Cc1cc(C(=O)NC2C3CNCC32)ccc1-c1ccc(C[C@H](NC(=O)[C@H]2CC[C@H](CN)CC2)C(=O)Nc2ccc(-c3nnc(C(F)(F)C(F)(F)C(=O)O)[nH]3)cc2)cc1 (stereo partly drawn) [Example 154, 3-(5-[4-({(2S)-2-({[trans-4-(Aminomethyl)cyclohexyl]carbonyl}amino)-3-[4′-(3-azabicyclo[3.1.0]hex-6-ylcarbamoyl)-2′-methylbiphenyl-4-yl]propanoyl}amino)phenyl]-4H-1,2,4-triazol-3-yl}-2,2,3,3-tetrafluoropropanoic acid hydrochloride] | 2.8 | – | 0.09 |
| Cc1cc(C(=O)NC2CCCNC2=O)ccc1-c1ccc(C[C@H](NC(=O)[C@H]2CC[C@H](CN)CC2)C(=O)Nc2ccc(-c3nnc(C(F)(F)C(F)(F)C(=O)O)[nH]3)cc2)cc1 (stereo partly drawn) [Example 155, 3-[5-(4-{[(2S)-2-({[trans-4-(Aminomethyl)cyclohexyl]carbonyl}amino)-3-{2′-methyl-4′-[(2-oxopiperidin-3-yl)carbamoyl]biphenyl-4-yl}propanoyl]amino}phenyl)-4H-1,2,4-triazol-3-yl]-2,2,3,3-tetrafluoropropanoic acid hydrochloride] | 1 | – | 0.16 |
| Cc1cc(C(=O)N[C@@H]2CCCNC2=O)ccc1-c1ccc(C[C@H](NC(=O)[C@H]2CC[C@H](CN)CC2)C(=O)Nc2ccc(-c3nnc(C(F)(F)C(F)(F)C(=O)O)[nH]3)cc2)cc1 [Example 166, 3-[5-(4-{[(2S)-2-({[trans-4-(Aminomethyl)cyclohexyl]carbonyl}amino)-3-(2′-methyl-4′-{[(3R)-2-oxopiperidin-3-yl]carbamoyl}biphenyl-4-yl)propanoyl]amino}phenyl)-4H-1,2,4-triazol-3-yl]-2,2,3,3-tetrafluoropropanoic acid hydrochloride] | 0.8 | – | 0.09 |
